The supplement of paper PMC10307832

What was measured:
Assay in all cases: relative viability (nuclei count vs DMSO), 5 days (fraction); higher = more cells survive
[1] = compound: Cc1ccc2nc(NCCN)c3ncc(C)n3c2c1 + COc1cc2c(Oc3ccc(NC(=O)C4(C(=O)Nc5ccc(F)cc5)CC4)cc3F)ccnc2cc1OCCCN1CCOCC1 [Foretinib] (partner 0.25 µM)
Procedure, shortened: (§1)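 Lung cancer cell lines were seeded in 1536-well plates and dosed by pin tool the next day, with either a single drug or a fixed anchor-drug dose combined with five library-drug doses (not always all listed) spaced in √10 steps. Five days later, one step fixed the cells and stained their nuclei (final 0.05% Triton X-100, 1% formaldehyde, 1 ug/ml Hoechst), and nuclei were counted on 4× images. Relative viability is the nuclei count in treated wells divided by the count in vehicle wells, and each value is the median of duplicate plates.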

[2] = compound: Cc1ccc2nc(NCCN)c3ncc(C)n3c2c1 + C[C@@H](Oc1cc(-c2cnn(C3CCNCC3)c2)cnc1N)c1c(Cl)ccc(F)c1Cl [Crizotinib] (partner 1 µM)
Procedure, shortened: as §1

[3] = compound: Cc1ccc2nc(NCCN)c3ncc(C)n3c2c1 + C[C@]1(O)C[C@@H](c2nc(-c3ccc4ccc(-c5ccccc5)nc4c3)c3c(N)nccn32)C1 [Linsitinib] (partner 1 µM)
Procedure, shortened: as §1

Salubrinal + Pictilisib = compound: O=C(/C=C/c1ccccc1)NC(NC(=S)Nc1cccc2cccnc12)C(Cl)(Cl)Cl [Salubrinal] + CS(=O)(=O)N1CCN(Cc2cc3nc(-c4cccc5[nH]ncc45)nc(N4CCOCC4)c3s2)CC1 [Pictilisib] (partner 1 µM)
Procedure, shortened: as §1

Cell Line | relative viability ([1]; first compound 0.04 µM) | relative viability ([1]; first compound 0.1265 µM) | relative viability ([1]; first compound 0.4 µM) | relative viability ([1]; first compound 1.265 µM) | relative viability ([1]; first compound 4 µM) | relative viability ([2]; first compound 0.04 µM) | relative viability ([2]; first compound 0.1265 µM) | relative viability ([2]; first compound 0.4 µM) | relative viability ([2]; first compound 1.265 µM) | relative viability ([2]; first compound 4 µM) | relative viability ([3]; first compound 0.04 µM) | relative viability ([3]; first compound 0.1265 µM) | relative viability ([3]; first compound 0.4 µM) | relative viability ([3]; first compound 1.265 µM) | relative viability ([3]; first compound 4 µM) | relative viability (Salubrinal + Pictilisib; first compound 0.08 µM) | relative viability (Salubrinal + Pictilisib; first compound 0.253 µM) | relative viability (Salubrinal + Pictilisib; first compound 0.8 µM) | relative viability (Salubrinal + Pictilisib; first compound 2.53 µM) | relative viability (Salubrinal + Pictilisib; first compound 8 µM)
CAL-12T | 1.14 | 0.967 | 1.13 | 1.14 | 0.97 | 0.787 | 0.716 | 0.725 | 0.603 | 0.344 | 0.835 | 0.873 | 0.853 | 0.877 | 0.731 | 0.392 | 0.488 | 0.438 | 0.734 | 0.528
RERF-LC-KJ | 0.911 | 0.845 | 0.851 | 0.796 | 0.828 | 0.829 | 0.791 | 0.777 | 0.722 | 0.789 | 0.84 | 0.895 | 0.863 | 0.795 | 0.73 | 0.664 | 0.622 | 0.549 | 0.608 | 0.52
NCI-H1650 | 1.22 | 1.15 | 1.22 | 1.13 | 0.943 | 0.965 | 0.969 | 0.995 | 0.97 | 0.571 |  |  |  |  |  | 0.536 | 0.491 | 0.635 | 0.581 | 0.536
BEN | 0.82 | 0.86 | 0.657 | 0.788 | 0.752 | 0.944 | 0.59 | 0.872 | 0.798 | 0.842 | 0.916 | 0.785 | 1.03 | 0.795 | 0.914 | 0.567 | 0.606 | 0.746 | 0.643 | 0.549
EMC-BAC-2 | 0.966 | 0.992 | 0.988 | 1.01 | 1.05 | 0.761 | 0.728 | 0.735 | 0.733 | 0.775 | 0.799 | 0.806 | 0.822 | 0.819 | 0.831 | 0.607 | 0.454 | 0.574 | 0.583 | 0.565
LU99A | 0.884 | 0.796 | 0.805 | 0.921 | 0.83 | 0.636 | 0.549 | 0.49 | 0.565 | 0.635 | 0.568 | 0.524 | 0.526 | 0.561 | 0.522 | 0.29 | 0.35 | 0.356 | 0.318 | 0.362
ABC-1 | 1.22 | 1.05 | 1.09 | 0.839 | 1.01 | 1.09 | 1.04 | 1.23 | 0.988 | 0.68 | 0.95 | 0.806 | 0.812 | 0.818 | 0.594 | 0.705 | 0.92 | 0.812 | 0.727 | 0.588
